Measurements reported in patent US20200123208A1, “PEPTIDES AND NEMATICIDAL COMPOSITIONS” (priority 2017, published 2020).

What was measured:
Format in all cases: in vivo
[1] = tested on: Meloidogyne incognita infective stage juveniles (J2s); assay: Chemosensory (chemotaxis) assay towards root exudate, M. incognita J2s; conditions: M. incognita J2s, 100 μM uNLP, 24 h; mean+/-SEM
Method: (§1) Predicted uNLPs from both M. incognita and G. pallida were synthesised by EZBiolab and dissolved into pH adjusted ddH2O to make a 5 mM stock which was aliquoted and stored at −20° C. J2s of both M. incognita and G. pallida were incubated for 24 hours in 200 μl of each peptide in a 24 well plate (SPL Lifesciences, South Korea) at a defined concentration.
(§2) A 60 mm Petri dish was divided into two segments, a positive and a negative side, with a 0.5 cm ‘dead zone’ either side of the centre point. The petri dish was filled with 15 ml of 0.25% w/v agar which was allowed to solidify. 3 ml of 0.25% w/v agar slurry in spring water (pH 7, agitated with a magnetic stirrer for several hours to give a smooth consistency) was added to the petri dish and spread evenly over the surface. Root diffusate (attractant) and water only (control) 0.25% agar plugs were embedded in the agar slurry, either side of the assay arena. Root diffusate was collected from 10 tomato plants, aged 3-6 weeks in 1 litre pots, by pouring 500 ml of ddH2O through the soil three times. Diffusate from each plant was combined, filter sterilised and stored at 4° C. for a maximum of 1 month. Root diffusate agar plugs were made by melting 1.25% agar in ddH2O, cooling to 50° C. before mixing with 4 parts of root diffusate. The agar was then allowed to solidify at room temperature. 100 uNLP pre-treated M. incognita or G. pallida J2s were added by pipette to the centre of the plate. J2s which moved out of the ‘dead zone’ after 3 hours were counted and their location (+/−) scored. The distribution of J2s were used to create a chemotaxis index for each plate, which formed one replicate, a total of 10 replicates where completed for each uNLP treatment.

[2] = tested on: Meloidogyne incognita J2s; assay: Tomato invasion assay, M. incognita J2s; conditions: 100 μM uNLP, 24 h, tomato seedlings, normalised to negative control
Method: as §1
(§3) Tomato seeds were sterilised with 2.5% NaOCl for 15 minutes, washed 5 times in ddH2O and germinated on 0.5% Murashige and Skoog plates at 23° C. […] Invasion assays were performed by mixing 500 pre-treated M. incognita or G. pallida J2s with agar slurry and a single tomato seedling (2 days post germination) in a 6 well plate. Assays were left at 23° C. for 24 hours in the case of M. incognita and at 18° C. for 24 hours in the case of G. pallida under a 16 hour light and 8 hour darkness cycle. Seedlings were stained using acid fuschin [69] and the number of nematodes within the roots counted.

[3] = tested on: Globodera pallida infective stage juveniles (J2s); assay: Chemosensory (chemotaxis) assay towards root exudate, G. pallida J2s; conditions: 100 μM uNLP, 24 h, mean+/-SEM
Method: as §1, §2

[4] = tested on: Meloidogyne incognita J2s; assay: Serotonin-induced stylet thrusting assay, M. incognita J2s; conditions: 100 μM uNLP, 24 h, 5 mM serotonin
Method: as §1
(§4) Stylet thrusting assays where performed by incubating 100 M. incognita or G. pallida J2s for 15 minute in 5 mM or 2 mM serotonin (Sigma Aldrich, USA), respectively. J2s were placed on a glass slide and stylet thrusts were counted for randomly selected J2s, for 1 minute each. Counting took place for a maximum of 15 minutes. Longer incubations yielded inconsistent results. At least 30 J2s were counted for each neuropeptide treatment.

Globodera pallida J2s [5] = assay: Tomato invasion assay, G. pallida J2s; conditions: G. pallida J2s, 100 μM uNLP, 24 h; tomato seedlings
Method: as §1, §3

Globodera pallida J2s [6] = assay: Serotonin-induced stylet thrusting assay, G. pallida J2s; conditions: 100 μM uNLP, 24 h, 2 mM serotonin
Method: as §1, §4

SAFDSFVGRGFTGMD [Mi-NLP-15e, predicted unamidated NLP of Meloidogyne incognita]
chemotaxis index (Cl) towards root exudate [1]: −0.01767+/−0.09428
host invasion compared to controls [2]: 38.71%+/−5.963

SFDSLTGPGFTGLDT [Gp-NLP-15a, predicted unamidated NLP of Globodera pallida]
chemotaxis index (Cl) towards root exudate [3]: −0.1451 +/−0.221

ALDLMEGDGFGGGFD [Mi-NLP-14b, predicted unamidated NLP of Meloidogyne incognita]
chemotaxis index (Cl) towards root exudate [1]: −0.1155+/−0.1472

SSLASGRIGFRPA [Mi-NLP-2, predicted unamidated NLP of Meloidogyne incognita]
rate of serotonergic-induced stylet thrusting compared with controls [4]: 164.4%+/−20.3

FNDDELSSLPFNFEYFPSLDTH [Mi-NLP-8b, predicted unamidated NLP of Meloidogyne incognita]
host invasion compared to controls [2]: 61.38%+/−11.56

ALDILDGDDFTGFS [Gp-NLP-14e, predicted unamidated NLP of Globodera pallida]
chemotaxis index (Cl) towards root exudate [3]: −0.0641+/−0.2329

ALDMLEGDDFIGMQ [Mi-NLP-14a, predicted unamidated NLP of Meloidogyne incognita]
host invasion compared to controls [2]: 44.61%+/−12.25
rate of serotonergic-induced stylet thrusting compared with controls [4]: 61.6%+/−7.86

GGARPFYGFFGGGEGTW [Mi-NLP-9e, predicted unamidated NLP of Meloidogyne incognita]
host invasion compared to controls [2]: 48.68%+/−10.87

AFDSFAGNGFTGFD [Mi-NLP-15f, predicted unamidated NLP of Meloidogyne incognita]
chemotaxis index (Cl) towards root exudate [1]: −0.05+/−0.3547
rate of serotonergic-induced stylet thrusting compared with controls [4]: 75.18%+/−9.199

FAPRQFAFA [Mi-NLP-18a, predicted unamidated NLP of Meloidogyne incognita]
chemotaxis index (Cl) towards root exudate [1]: −0.1353+/−0.1129
host invasion compared to controls [2]: 25.88%+/−8.695

SSQFGGENSFARFAFA [Mi-NLP-18e, predicted unamidated NLP of Meloidogyne incognita]
host invasion compared to controls [2]: 46.49%+/−7.391

ALDILESDDFGGF [Gp-NLP-14a, predicted unamidated NLP of Globodera pallida]
chemotaxis index (Cl) towards root exudate [3]: −0.3765+/−0.1039

GGARAFNFFAPDE [Gp-NLP-21b, predicted unamidated NLP of Globodera pallida]
host invasion relative to controls (Globodera pallida J2s [5]): 6.897%+/−3.855
chemotaxis index (Cl) towards root exudate [3]: −0.117 +/−0.1936

AFDRLDVSPFDFDAMT [Mi-NLP-8a, predicted unamidated NLP of Meloidogyne incognita]
chemotaxis index (Cl) towards root exudate [1]: 0.018+/−0.3438
rate of serotonergic-induced stylet thrusting compared with controls [4]: 126.1%+/−9.278

GGARTFLVGE [Mi-NLP-9b, predicted unamidated NLP of Meloidogyne incognita]
chemotaxis index (Cl) towards root exudate [1]: −0.07417+/−0.154

AFDSFTGPGFTGMD [Gp-NLP-15g, predicted unamidated NLP of Globodera pallida]
chemotaxis index (Cl) towards root exudate [3]: −0.2208 +/−0.1568

AFDLFTGPGFTGMD [Gp-NLP-15h, predicted unamidated NLP of Globodera pallida]
chemotaxis index (Cl) towards root exudate [3]: −0.06784+/−0.1415

GMRNFAFA [Mi-NLP-18b, predicted unamidated NLP of Meloidogyne incognita]
host invasion compared to controls [2]: 47.81%+/−6.008
rate of serotonergic-induced stylet thrusting compared with controls [4]: 146.6%+/−7.609

AFDSFGTPGFTGFD [Mi-NLP-15a, predicted unamidated NLP of Meloidogyne incognita]
chemotaxis index (Cl) towards root exudate [1]: −0.01067+/−0.06497

GGARAFNFFAPPDE [Gp-NLP-21a, predicted unamidated NLP of Globodera pallida]
host invasion relative to controls (Globodera pallida J2s [5]): 178.9%+/−48.52

AGGRYFMRHFDDSPFAGWMA [Gp-NLP-21g, predicted unamidated NLP of Globodera pallida]
host invasion relative to controls (Globodera pallida J2s [5]): 214.8%+/−30.31
chemotaxis index (Cl) towards root exudate [3]: −0.01357+/−0.1854

GGARPFYGGGYMDGTW [Gp-NLP-21f, predicted unamidated NLP of Globodera pallida]
chemotaxis index (Cl) towards root exudate [3]: 0.1456+/−0.1232

SFGDYPFGSRTFAFA [Mi-NLP-18c, predicted unamidated NLP of Meloidogyne incognita]
rate of serotonergic-induced stylet thrusting compared with controls [4]: 175.5%+/−20.72

AGGRLFRMVDLPDGDDFVPEG [Gp-NLP-21e, predicted unamidated NLP of Globodera pallida]
chemotaxis index (Cl) towards root exudate [3]: −0.3804+/−0.2762

GGARAFFGDADGPFNSASYWAP [Gp-NLP-21h, predicted unamidated NLP of Globodera pallida]
serotonergic-induced stylet thrusting relative to control groups (Globodera pallida J2s [6]): 116.8%+/−4.876
chemotaxis index (Cl) towards root exudate [3]: −0.01564+/−0.08072

SGIQTFRDDYDEKQAGEL [Gp-NLP-21d, predicted unamidated NLP of Globodera pallida]
host invasion relative to controls (Globodera pallida J2s [5]): 2.01%+/−1.545

SFDSFTGSGFTGLD [Gp-NLP-15c, predicted unamidated NLP of Globodera pallida]
serotonergic-induced stylet thrusting relative to control groups (Globodera pallida J2s [6]): 56.07%+/−9.441
chemotaxis index (Cl) towards root exudate [3]: −0.227+/−0.0776

AGARAFQRPDFDDASYEL [Mi-NLP-9a, predicted unamidated NLP of Meloidogyne incognita]
host invasion compared to controls [2]: 45.59%+/−22.97

AAENFDENNDIN [Mi-NLP-18d, predicted unamidated NLP of Meloidogyne incognita]
host invasion compared to controls [2]: 34.21%+/−12
rate of serotonergic-induced stylet thrusting compared with controls [4]: 147.7%+/−16.05

GGTRAFNFFVSDALPSSYE [Gp-NLP-21c, predicted unamidated NLP of Globodera pallida]
host invasion relative to controls (Globodera pallida J2s [5]): 14.07%+/−4.655

GGARAFAKLEE [Mi-NLP-9c, predicted unamidated NLP of Meloidogyne incognita]
rate of serotonergic-induced stylet thrusting compared with controls [4]: 143.2%+/−9.878

GGARAFNGAEETLLNVANLA [Gp-NLP-21i, predicted unamidated NLP of Globodera pallida]
serotonergic-induced stylet thrusting relative to control groups (Globodera pallida J2s [6]): 117.7%+/−4.497
chemotaxis index (Cl) towards root exudate [3]: −0.1733 +/−0.02667

SFDSFVGKGFTGMD [Mi-NLP-15c, predicted unamidated NLP of Meloidogyne incognita]
chemotaxis index (Cl) towards root exudate [1]: −0.359+/−0.277

AFDRLDNSFMLL [Mi-NLP-8d, predicted unamidated NLP of Meloidogyne incognita]
host invasion compared to controls [2]: 29.31%+/−12.57

ALDMMEGDDFIGL [Mi-NLP-14c, predicted unamidated NLP of Meloidogyne incognita]
host invasion compared to controls [2]: 20.96%+/−11.12
rate of serotonergic-induced stylet thrusting compared with controls [4]: 134.7%+/−19.51
